From US20240158348A1, “HERBICIDAL CYCLIC AMIDES N-SUBSTITUTED WITH A HALOALKYLSULFONYLANILIDE GROUP” (FMC Corporation, priority 2021, published 2024)

Experiments:
Assay type in all cases: in vivo
[1] = test system: corn (Zea mays); test: Test C preemergence, corn; settings: 0 is no effect, 100 is complete control
Method in brief: (§1)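 Plants grown in a sand and loam soil blend received the formulated test chemicals either as a preemergence soil-directed spray or postemergence at 2 to 10 cm height. After 10 or 12 greenhouse days, injury was assessed visually, with 100 meaning complete control.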

[2] = test system: goosegrass (Eleusine indica); test: Test C preemergence, goosegrass; settings: 0 is no effect, 100 is complete control
Method in brief: as §1

[3] = test system: oat, wild (wild oat, Avena fatua); test: Test C preemergence, wild oat; settings: 0 is no effect, 100 is complete control
Method in brief: (§2)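 Herbicidal effect was estimated visually on a 0–100 scale 10 or 12 days after spraying. Formulation: non-phytotoxic solvent mixture with surfactant. Timing: directed soil spray after sowing, or postemergence on seedlings bearing one or two leaves.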

[4] = test system: pigweed, palmer (palmer amaranth, Amaranthus palmeri); test: Test C preemergence, palmer amaranth; settings: 0 is no effect, 100 is complete control
Method in brief: as §2

[5] = test system: ryegrass, Italian (Italian ryegrass, Lolium multiflorum); test: Test C preemergence, Italian ryegrass; settings: 0 is no effect, 100 is complete control
Method in brief: as §2

[6] = test system: wheat (Triticum aestivum); test: Test C preemergence, wheat; settings: 0 is no effect, 100 is complete control
[7] = test system: galium (catchweed bedstraw, Galium aparine); test: Test C postemergence, galium; settings: visual injury, 0 to 100 scale (0 no effect, 100 complete control)
[8] = test system: horseweed (Erigeron canadensis); test: Test C postemergence, horseweed; settings: visual injury, 0 to 100 scale (0 no effect, 100 complete control)
Method in brief: as §2

## Cc1c(N2CCC(OC3CC3)C2=O)cc(N(C(=O)OCC(C)C)S(=O)(=O)C(F)(F)F)c(C)c1C (centres unmarked) [Compound 50]
[1]; 31 g ai/ha Preemergence
  Plant response rating (0 to 100 scale), Corn: 10
[1]; 125 g ai/ha Preemergence
  Plant response rating (0 to 100 scale), Corn: 90
[2]; 31 g ai/ha Preemergence
  Plant response rating (0 to 100 scale), Goosegrass: 90
[2]; 125 g ai/ha Preemergence
  Plant response rating (0 to 100 scale), Goosegrass: 100
[3]; 31 g ai/ha Preemergence
  Plant response rating (0 to 100 scale), Oat, Wild: 70
[3]; 125 g ai/ha Preemergence
  Plant response rating (0 to 100 scale), Oat, Wild: 80
[4]; 31 g ai/ha Preemergence
  Plant response rating (0 to 100 scale), Pigweed, Palmer: 90
[4]; 125 g ai/ha Preemergence
  Plant response rating (0 to 100 scale), Pigweed, Palmer: 100
[5]; 31 g ai/ha Preemergence
  Plant response rating (0 to 100 scale), Ryegrass, Italian: 50
[5]; 125 g ai/ha Preemergence
  Plant response rating (0 to 100 scale), Ryegrass, Italian: 100
[6]; 31 g ai/ha Preemergence
  Plant response rating (0 to 100 scale), Wheat: 30
[6]; 125 g ai/ha Preemergence
  Plant response rating (0 to 100 scale), Wheat: 100
[7]; 31 g ai/ha Postemergence
  Galium plant response rating: 60
[7]; 125 g ai/ha Postemergence
  Galium plant response rating: 100

## Cc1c(N2CCC(OC3CCC3)C2=O)cc(N(COC(=O)C(C)(C)C)S(=O)(=O)C(F)(F)F)c(C)c1C (centres unmarked) [Compound 51]
[1]; 31 g ai/ha Preemergence
  Plant response rating (0 to 100 scale), Corn: 0
[1]; 125 g ai/ha Preemergence
  Plant response rating (0 to 100 scale), Corn: 40
[2]; 31 g ai/ha Preemergence
  Plant response rating (0 to 100 scale), Goosegrass: 0
[2]; 125 g ai/ha Preemergence
  Plant response rating (0 to 100 scale), Goosegrass: 90
[3]; 31 g ai/ha Preemergence
  Plant response rating (0 to 100 scale), Oat, Wild: 20
[3]; 125 g ai/ha Preemergence
  Plant response rating (0 to 100 scale), Oat, Wild: 50
[4]; 31 g ai/ha Preemergence
  Plant response rating (0 to 100 scale), Pigweed, Palmer: 20
[4]; 125 g ai/ha Preemergence
  Plant response rating (0 to 100 scale), Pigweed, Palmer: 60
[5]; 31 g ai/ha Preemergence
  Plant response rating (0 to 100 scale), Ryegrass, Italian: 40
[5]; 125 g ai/ha Preemergence
  Plant response rating (0 to 100 scale), Ryegrass, Italian: 100
[6]; 31 g ai/ha Preemergence
  Plant response rating (0 to 100 scale), Wheat: 10
[6]; 125 g ai/ha Preemergence
  Plant response rating (0 to 100 scale), Wheat: 60
[7]; 31 g ai/ha Postemergence
  Galium plant response rating: 60
[7]; 125 g ai/ha Postemergence
  Galium plant response rating: 90
[8]; 31 g ai/ha Postemergence
  Horseweed plant response rating: 60
[8]; 125 g ai/ha Postemergence
  Horseweed plant response rating: 90

## Cc1cc(C)c(N2CCC(OCC3CCC3(F)F)C2=O)cc1NS(=O)(=O)C(F)(F)F (centres unmarked) [Compound 52]
[1]; 31 g ai/ha Preemergence
  Plant response rating (0 to 100 scale), Corn: 10
[1]; 125 g ai/ha Preemergence
  Plant response rating (0 to 100 scale), Corn: 90
[2]; 31 g ai/ha Preemergence
  Plant response rating (0 to 100 scale), Goosegrass: 80
[2]; 125 g ai/ha Preemergence
  Plant response rating (0 to 100 scale), Goosegrass: 100
[3]; 31 g ai/ha Preemergence
  Plant response rating (0 to 100 scale), Oat, Wild: 20
[3]; 125 g ai/ha Preemergence
  Plant response rating (0 to 100 scale), Oat, Wild: 90
[4]; 31 g ai/ha Preemergence
  Plant response rating (0 to 100 scale), Pigweed, Palmer: 70
[4]; 125 g ai/ha Preemergence
  Plant response rating (0 to 100 scale), Pigweed, Palmer: 100
[5]; 31 g ai/ha Preemergence
  Plant response rating (0 to 100 scale), Ryegrass, Italian: 0
[5]; 125 g ai/ha Preemergence
  Plant response rating (0 to 100 scale), Ryegrass, Italian: 80
[6]; 31 g ai/ha Preemergence
  Plant response rating (0 to 100 scale), Wheat: 90
[6]; 125 g ai/ha Preemergence
  Plant response rating (0 to 100 scale), Wheat: 100
[7]; 31 g ai/ha Postemergence
  Galium plant response rating: 70
[7]; 125 g ai/ha Postemergence
  Galium plant response rating: 100
[8]; 31 g ai/ha Postemergence
  Horseweed plant response rating: 80
[8]; 125 g ai/ha Postemergence
  Horseweed plant response rating: 90

## Cc1cc(C)c(N(COC(=O)C(C)(C)C)S(=O)(=O)C(F)(F)F)cc1N1CCC(OCC2CC2(F)F)C1=O (centres unmarked) [Compound 54]
[1]; 31 g ai/ha Preemergence
  Plant response rating (0 to 100 scale), Corn: 0
[1]; 125 g ai/ha Preemergence
  Plant response rating (0 to 100 scale), Corn: 30
[2]; 31 g ai/ha Preemergence
  Plant response rating (0 to 100 scale), Goosegrass: 20
[2]; 125 g ai/ha Preemergence
  Plant response rating (0 to 100 scale), Goosegrass: 100
[3]; 31 g ai/ha Preemergence
  Plant response rating (0 to 100 scale), Oat, Wild: 0
[3]; 125 g ai/ha Preemergence
  Plant response rating (0 to 100 scale), Oat, Wild: 80
[4]; 31 g ai/ha Preemergence
  Plant response rating (0 to 100 scale), Pigweed, Palmer: 0
[4]; 125 g ai/ha Preemergence
  Plant response rating (0 to 100 scale), Pigweed, Palmer: 50
[5]; 31 g ai/ha Preemergence
  Plant response rating (0 to 100 scale), Ryegrass, Italian: 0
[5]; 125 g ai/ha Preemergence
  Plant response rating (0 to 100 scale), Ryegrass, Italian: 90
[6]; 31 g ai/ha Preemergence
  Plant response rating (0 to 100 scale), Wheat: 0
[6]; 125 g ai/ha Preemergence
  Plant response rating (0 to 100 scale), Wheat: 80
[8]; 31 g ai/ha Postemergence
  Horseweed plant response rating: 70
[8]; 125 g ai/ha Postemergence
  Horseweed plant response rating: 90

## Cc1cc(C)c(N(COC(=O)C(C)(C)C)S(=O)(=O)C(F)(F)F)cc1N1CCC(OCC2CC(F)(F)C2)C1=O (centres unmarked) [Compound 55]
[1]; 31 g ai/ha Preemergence
  Plant response rating (0 to 100 scale), Corn: 0
[1]; 125 g ai/ha Preemergence
  Plant response rating (0 to 100 scale), Corn: 10
[2]; 31 g ai/ha Preemergence
  Plant response rating (0 to 100 scale), Goosegrass: 10
[2]; 125 g ai/ha Preemergence
  Plant response rating (0 to 100 scale), Goosegrass: 100
[3]; 31 g ai/ha Preemergence
  Plant response rating (0 to 100 scale), Oat, Wild: 0
[3]; 125 g ai/ha Preemergence
  Plant response rating (0 to 100 scale), Oat, Wild: 20
[4]; 31 g ai/ha Preemergence
  Plant response rating (0 to 100 scale), Pigweed, Palmer: 0
[4]; 125 g ai/ha Preemergence
  Plant response rating (0 to 100 scale), Pigweed, Palmer: 30
[5]; 31 g ai/ha Preemergence
  Plant response rating (0 to 100 scale), Ryegrass, Italian: 20
[5]; 125 g ai/ha Preemergence
  Plant response rating (0 to 100 scale), Ryegrass, Italian: 60
[6]; 31 g ai/ha Preemergence
  Plant response rating (0 to 100 scale), Wheat: 10
[6]; 125 g ai/ha Preemergence
  Plant response rating (0 to 100 scale), Wheat: 40
[8]; 31 g ai/ha Postemergence
  Horseweed plant response rating: 80
[8]; 125 g ai/ha Postemergence
  Horseweed plant response rating: 80
